Values after ≈ are worked out from the molar mass of the structure shown. Where two headings read alike, the source gives them in different places.
How the values were obtained:
[1] = solubility in buffer solution; assay type: physicochemical; conditions: pH 7.5, aqueous buffer
Method: Said solubilities are given in g. of rifamycin % ml. of buffer solution (pH=7,5 and t=22° C.). DA means desacetyl.

[2] = in vivo; conditions: mouse

Row | solubility ([1]; buffer) [µg/mL] | Compound | LD50 ([2]; ip, acute toxicity, mice) [mg/kg] | solubility ([1]; buffer solution, pH = 7,5, 22° C., read-out: Solubility) [µg/mL] | LD50 ([2]; iv) [mg/kg]
1 | 420 (≈ 536 µM) | CCN(CC)Cc1c2c(O)c3c(O)c(C)c4c(c3c1O)C(=O)C(C)(OC=CC(OC)C(C)C(OC(C)=O)C(C)C(O)C(C)C(O)C(C)C=CC=C(C)C(=O)N2)O4 (stereo not shown) [3-diethylaminomethyl-rifamycin SV, reference compound] |  |  | 
2 |  | COC1C=COC2(C)Oc3c(C)c(O)c4c(O)c(c(C=NN5CCN(C)CC5)c(O)c4c3C2=O)NC(=O)C(C)=CC=CC(C)C(O)C(C)C(O)C(C)C(OC(C)=O)C1C (stereo not shown) [3-(4-methyl-piperazinyl-iminomethyl)-rifamycin SV, reference compound] | 460 | 2850 (≈ 3460 µM) | 
3 | 150 (≈ 199 µM) | CON=Cc1c2c(O)c3c(O)c(C)c4c(c3c1O)C(=O)C(C)(OC=CC(OC)C(C)C(OC(C)=O)C(C)C(O)C(C)C(O)C(C)C=CC=C(C)C(=O)N2)O4 (stereo not shown) [3-methoximinomethyl-rifamycin SV, reference compound] |  |  | 
4 | 60 (≈ 76.8 µM) | COC1C=COC2(C)Oc3c(C)c(O)c4c(O)c(c(CN5CCCC5)c(O)c4c3C2=O)NC(=O)C(C)=CC=CC(C)C(O)C(C)C(O)C(C)C(OC(C)=O)C1C (stereo not shown) [3-pyrrolidino-methyl-rifamycin SV, reference compound] |  |  | 
5 | 2800 (≈ 3790 µM) | COC1C=COC2(C)Oc3c(C)c(O)c4c(O)c(c(CN5CCCC5)c(O)c4c3C2=O)NC(=O)C(C)=CC=CC(C)C(O)C(C)C(O)C(C)C(O)C1C (stereo not shown) [25-DA-3-pyrrolidino-methyl-rifamycin SV] |  |  | 
6 | 1260 (≈ 1700 µM) | CCN(CC)Cc1c2c(O)c3c(O)c(C)c4c(c3c1O)C(=O)C(C)(OC=CC(OC)C(C)C(O)C(C)C(O)C(C)C(O)C(C)C=CC=C(C)C(=O)N2)O4 (stereo not shown) [25-DA-3-diethylaminomethyl-rifamycin SV, 25-desacetyl-3-diethylaminomethyl-rifamycin SV] |  |  | 
7 |  | CCN(CC)C(=O)COc1cc2c(O)c3c(O)c(C)c4c(c13)C(=O)C(C)(OC=CC(OC)C(C)C(O)C(C)C(O)C(C)C(O)C(C)C=CC=C(C)C(=O)N2)O4 (stereo not shown) [25-DA-rifamycin B diethylamide] |  |  | 600

Row | Compound | solubility ([1]; buffer) [µg/mL] | LD50 ([2]; ip, acute toxicity, mice) [mg/kg] | solubility ([1]; buffer solution, pH = 7,5, 22° C., read-out: Solubility) [µg/mL] | LD50 ([2]; iv) [mg/kg]
8 | CON=Cc1c2c(O)c3c(O)c(C)c4c(c3c1O)C(=O)C(C)(OC=CC(OC)C(C)C(O)C(C)C(O)C(C)C(O)C(C)C=CC=C(C)C(=O)N2)O4 (stereo not shown) [25-DA-3-methoximinomethyl-rifamycin SV] | 340 (≈ 477 µM) | 560 |  | 
9 | COC1C=COC2(C)Oc3c(C)c(O)c4c(O)c(c(C=O)c(O)c4c3C2=O)NC(=O)C(C)=CC=CC(C)C(O)C(C)C(O)C(C)C(OC(C)=O)C1C (stereo not shown) [3-formyl-rifamycin SV, reference compound] | 6400 (≈ 8820 µM) | 300 |  | 
10 | COC1C=COC2(C)Oc3c(C)c(O)c4c(O)c(c(C=NN5CCN(C)CC5)c(O)c4c3C2=O)NC(=O)C(C)=CC=CC(C)C(O)C(C)C(O)C(C)C(O)C1C (stereo not shown) [25-DA-3-(4-methyl-piperazinyl-iminomethyl)-rifamycin SV] | 7600 (≈ 9730 µM) | 850 |  | 
11 | COC1C=COC2(C)Oc3c(C)c(O)c4c(O)c(c(C=O)c(O)c4c3C2=O)NC(=O)C(C)=CC=CC(C)C(O)C(C)C(O)C(C)C(O)C1C (stereo not shown) [25-DA-3-formyl-rifamycin SV] | 34300 (≈ 50200 µM) | 550 |  | 
